ChEMBL document CHEMBL1136889, “The application of the phosphoramidate ProTide approach confers micromolar potency against hepatitis C virus on inactive agent 4'-azidoinosine: kinase bypass on a dual base/sugar modified nucleoside” (Bioorg Med Chem Lett, 2009)

What was measured:
[1] = Cytotoxicity against human HuH7 cells assessed as [3H]thymidine incorporation; format: cell-based, Huh-7
Hepatitis C virus = test: Antiviral activity against HCV 1b in human HuH7 cells assessed as renilla luciferase activity by replicon assay; format: functional, organism-based, Hepacivirus hominis; conditions: genotype 1b, Huh-7

Row | Structure (SMILES) | EC50 (Hepatitis C virus) | CC50 [1]
1 | CCOC(=O)[C@H](C)NP(=O)(OC[C@@]1(N=[N+]=[N-])O[C@@H](n2cnc3c(=O)[nH]cnc32)[C@H](O)[C@@H]1O)Oc1cccc2ccccc12 (stereo partly drawn) | 16.4 µM | > 100 µM
2 | C[C@H](NP(=O)(OC[C@@]1(N=[N+]=[N-])O[C@@H](n2cnc3c(=O)[nH]cnc32)[C@H](O)[C@@H]1O)Oc1cccc2ccccc12)C(=O)OC(C)(C)C (stereo partly drawn) | > 100 µM | > 100 µM
3 | C[C@H](NP(=O)(OC[C@@]1(N=[N+]=[N-])O[C@@H](n2cnc3c(=O)[nH]cnc32)[C@H](O)[C@@H]1O)Oc1cccc2ccccc12)C(=O)OCc1ccccc1 (stereo partly drawn) | 4.3 µM | > 100 µM
4 | C[C@H](NP(=O)(OC[C@@]1(N=[N+]=[N-])O[C@@H](n2cnc3c(=O)[nH]cnc32)[C@H](O)[C@@H]1O)Oc1ccccc1)C(=O)OCc1ccccc1 (stereo partly drawn) | > 100 µM | > 100 µM
5 | [N-]=[N+]=N[C@]1(CO)O[C@@H](n2cnc3c(=O)[nH]cnc32)[C@H](O)[C@@H]1O | > 100 µM | > 100 µM

Further lines, with some results ahead:

Row | EC50 (Hepatitis C virus) | Structure (SMILES) | CC50 [1]
6 | > 100 µM | CCOC(=O)[C@H](C)NP(=O)(OC[C@@]1(N=[N+]=[N-])O[C@@H](n2cnc3c(=O)[nH]cnc32)[C@H](O)[C@@H]1O)Oc1ccccc1 (stereo partly drawn) | > 100 µM
7 | > 100 µM | CC(C)OC(=O)[C@H](C)NP(=O)(OC[C@@]1(N=[N+]=[N-])O[C@@H](n2cnc3c(=O)[nH]cnc32)[C@H](O)[C@@H]1O)Oc1ccccc1 (stereo partly drawn) | > 100 µM
8 | 6.1 µM | CC(C)OC(=O)[C@H](C)NP(=O)(OC[C@@]1(N=[N+]=[N-])O[C@@H](n2cnc3c(=O)[nH]cnc32)[C@H](O)[C@@H]1O)Oc1cccc2ccccc12 (stereo partly drawn) | > 100 µM
9 | > 100 µM | C[C@H](NP(=O)(OC[C@@]1(N=[N+]=[N-])O[C@@H](n2cnc3c(=O)[nH]cnc32)[C@H](O)[C@@H]1O)Oc1ccccc1)C(=O)OC(C)(C)C (stereo partly drawn) | > 100 µM
